# Tests used:
# [1] = Veliparib spatial distribution by MALDI-MSI in TNBC xenograft tumor and muscle sections; assay type: in vivo, beige SCID mice
# Description: (§1) Thirty-nine mice were euthanized approximately 3 h after the last dose of veliparib and 24 h after the last dose of carboplatin; two mice used in the DCE-MRI pilot were euthanized 1.5 h after single-dose administration of veliparib and carboplatin (Fig. 1). Bilateral xenograft tumors and liver and muscle (quadriceps) tissues were harvested. Tissues were cut into three pieces and either embedded in optimum cutting temperature (OCT) formulation or were directly snap frozen in liquid-nitrogen-cooled isopentane and stored at − 80 °C until analysis. […] A separate fresh-frozen portion of each tissue per animal was ground for quantification of veliparib and carboplatin by LC-MS. […]
# Heterogeneity of drug distribution of veliparib in the tissues evaluated by MALDI-MSI was assessed by comparing the relative standard deviation in the whole tissue of muscle and tumor cells, and by comparing the mean pixel intensity of each immunohistochemically (IHC)-defined region of interest capturing the whole tumor region, and regions of cellularity/necrosis using one-way ANOVA. […]
# By spiking different concentrations of veliparib on placebo treated mouse TNBC xenograft tissues, a rough estimate of the detection range of veliparib was determined to be 100 fmol-100 pmol absolute drug amount, Figure S2 left) with saturation of the signal occurring above 1 nmol/ μL. […]
# TNBC = system: TNBC; set-up: method as in ref [4] = [4]; 4. Rugo HS, et al. Veliparib/carboplatin plus standard neoadjuvant therapy for high-risk breast cancer: first efficacy results from the I-SPY 2 TRIAL [abstract]. Cancer Res. 2013;73:Abstract nr S5_02.; conditions: veliparib 50 mg BID combined with carboplatin, neoadjuvant; ref [4]; cited from earlier work
# HCC70 = conditions: ref [23]; cited from earlier work
# [2] = set-up: method as in PMID 19364967; conditions: ref [46]; cited from earlier work
# nuclear DNA = experiment: Platinum adducts (covalent nuclear DNA-binding) by ICP-MS in TNBC xenograft tumor sections; assay type: in vivo, beige SCID mice
# Description: as §1, with “LC-MS. Method development and details of the techniques are described in Additional file 1a-c.” for “LC-MS.”
# b). Technical aspects of the ICP-MS method development. […]
# DNA extraction procedure:
# The DNA extraction was based on previous publications. 4 In short, 44 μL 1 mol L −1 NH4HCO3, 20 μL 20% (w/v) SDS, and 6 μL 1% (w/v) proteinase K solution were added successively, and incubated for 24hours using a thermomixer. After the digestion was complete, 146 μL saturated 6 mol L−1 NaCl was added to each tube and the tubes were shaken vigorously to precipitate proteins. The tubes were centrifuged for 10min at 2000 g and the supernatant containing the DNA was transferred to another tube. Subsequently, the supernatant was shaken, centrifuged, and transferred to another tube. Following this, 1.5ml absolute ethanol was added to precipitate the DNA and centrifuged from 30 minutes at 21 Kg at 4°C. The DNA was washed twice with 75% ethanol and was subsequently dissolved in 30 μL water. DNA concentrations were analyzed by measuring the absorbance at 260 nm using Nanodrop 1000 spectophotometer (NanoDrop).
# Carboplatin adduct quantification:
# The quantity of the carboplatin-adducts per mg DNA was quantified (Figure S8) using a previously validated […]
# Figure S8: Example graph of mass spectrum of platinum in DNA extraction by ICP-MS.
Ion intensity tumor/muscle (RSE %) ([1]; cellular tumors (ROI)),Compound,Ion intensity tumor/muscle (RSE %) ([1]; necrotic tumors (ROI)),TN patients without pathologic complete response (pCR) (TNBC),Sensitivity in vitro (HCC70),Renal clearance as share of elimination [2],"Median conc. (RSE %), carboplatin adducts (nuclear DNA; HCC70 xenografts)","Median conc. (RSE %), carboplatin adducts (nuclear DNA; HCC70 xenografts, listed as Carboplatin)","Median conc. (RSE %), carboplatin adducts (nuclear DNA; MDA-MB-231 xenografts)","Median conc. (RSE %), carboplatin adducts (nuclear DNA; MDA-MB-231 xenografts, listed as Carboplatin)","Median conc. (RSE %), carboplatin adducts (nuclear DNA; MDA-MB-436 xenografts)","Median conc. (RSE %), carboplatin adducts (nuclear DNA; MDA-MB-436 xenografts, listed as Carboplatin)","Median conc. (RSE %), carboplatin adducts (nuclear DNA; all TNBC xenograft tissue, 24 h after two carboplatin administrations, ICP-MS)","Median conc. (RSE %), carboplatin adducts (nuclear DNA; carboplatin combined with placebo)","Median conc. (RSE %), carboplatin adducts (nuclear DNA; carboplatin combined with veliparib 60mg/kg for 3 days)",Median platinum adducts (nuclear DNA; xenograft tumor sections)
1.01 (85%),C[C@]1(c2nc3c(C(N)=O)cccc3[nH]2)CCCN1 [veliparib],1.63 (70%),approximately 42%,insensitive,70%,–,–,–,–,–,–,–,–,–,–
–,N.N.O=C([O-])C1(C(=O)[O-])CCC1.[Pt+2] [carboplatin],–,–,–,–,1.85 μmol/g DNA,1.85 (42%) μmol/g DNA,0.55 μmol/g DNA,0.55 (23%) μmol/g DNA,0.54 μmol/g DNA,0.54 (27%) μmol/g DNA,0.55 (30%) μmol/g DNA,0.476 (57) μmol/g DNA,0.977 (33) μmol/g DNA,546.3 nmol/g DNA

# Reference: article PMC5594551, “Heterogeneous drug penetrance of veliparib and carboplatin measured in triple negative breast tumors” (Breast Cancer Research : BCR, 2017)
